Experimental data as given in patent publication US9018172B2, “Modification of peptides via SNAr reactions of thiols with fluorinated aromatics” (Massachusetts Institute of Technology, priority 2012, dated 2015).

Experiments:
HEK293T cells = assay: Confocal microscopy cell imaging of FITC-labeled peptide uptake; format: cell-based; conditions: 5 μM, 4 hours
Experimental: 293T HEK cells were cultured with DMEM with 10% FBS (v/v) in imaging dishes (70K cells/well) in 37° C., 5% CO2 incubator for two days until they are about 70% confluent. Appropriate amounts of peptides 7, 7a, 7b, 8a and 8b dissolved in autoclaved H2O were added to the cells to final concentrations of 5 μM. Peptide 9 was first dissolved in DMSO to make a 200 μM stock and then added to cells to a final concentration of 5 μM. The cells were incubated with the samples for 4 hours at 37° C. and 5% CO2. After incubation, cells were washed 3 times with DPBS and then fixed with 4% formaldehyde in DPBS for 10 minutes. They are then washed 3 times with HBSS and stained with 5 μg/mL wheat germ agglutinin-tetramethylrhodamine conjugate in HBSS for 20 minutes. The cells were subsequently washed with HBSS once and DPBS twice and stained with 5 μg/mL diamidino-2-phenylindole (DAPI) in DPBS for 30 minutes. They were washed 3 times with DPBS and covered in one drop of pri-Gold and cover slide. Images of peptide localization in cells were taken on PerkinElmer Ultraview Spinning Disk Confocal with 30% of its maximum laser power in 488 channel with 500 ms exposure time and 0.5 μm Z-stacking Image processing was done using Volocity software package (PerkinElmer).

[1] = Proteolysis assay with trypsin or chymotrypsin, LC-MS; format: in vitro ADME; conditions: isolated enzyme several chymotrypsin trypsin, pH 8.1; after 10 minutes with protease (trypsin/chymotrypsin), 37° C.; read-out: intact peptide observed
Experimental: 100 μL of peptide (100 μM) in phosphate buffer (pH 8.1) was mixed and incubated with 40 μL of the protease solution (trypsin—70 μg/mL; chymotrypsin—50 μg/mL) at 37° C. Aliquots of 35 μL were quenched with 55 μL of 1% TFA solution in MeCN and subjected to LC-MS analysis at 10, 25 and 40 minutes respectively. Peptide concentrations at different time points were quantified by integration of the TIC trace relative to the starting peptide sample. Note, that in the case of experiments with unstapled peptide 7, <1% of the intact peptide was observed after 10 minutes.

[2] = Temperature-dependent melting from CD spectra at 222 nm; format: physicochemical; conditions: CD at 222 nm
Experimental: CD measurements were done with Aviv 202 spectrometer using 1 mm quartz cuvette. Peptide solutions were made by dissolving solid samples in 25% acetonitrile/water mixture, CD spectra of 3a and 3b were measured in acetonitrile, CD spectra of affibodies was collected in 10 mM phosphate buffer. Concentration of affibodies was estimated by UV absorbance measurements at 280 nm. Contribution of the perfluorinated staple in 6a on the absorbance value at 280 nm was taken into account (estimated molar extinction coefficient for [—S—C6F4—S-]˜5000 cm^−1M^−1 from UV measurements of solutions of 6 and 6a) in these measurements. Data processing included solvent background correction (subtraction) and adjustment for pathlength and concentration (MRE=[θ]λ=θobs×1/(10 lcn); θobs=measured ellipticity, θ=mean residual ellipticity in deg×cm^2×dmol^−1, 1=pathlength (cm); c=concentration of peptide (M); n=# of amino acids). α-helicities of the peptides were estimated using previously established methods.

Row | Compound | cellular uptake (confocal microscopy) (HEK293T cells) | remaining at 10 min [1] [%] | temperature dependent melting properties [2]
1 | CC[C@H](C)[C@H](NC(=O)CCNC(=S)Nc1ccc(-c2c3ccc(=O)cc-3oc3cc(O)ccc23)c(C(=O)O)c1)C(=O)N[C@H](C(=O)N[C@@H](Cc1ccccc1)C(=O)N[C@@H](CSCC(N)=O)C(=O)N[C@@H](CC(=O)O)C(=O)N[C@@H](CC(C)C)C(=O)N[C@@H](CC(C)C)C(=O)N[C@@H](CSCC(N)=O)C(=O)N[C@@H](Cc1ccc(O)cc1)C(=O)N[C@@H](Cc1ccc(O)cc1)C(=O)NCC(=O)N[C@@H](CCCCN)C(=O)N[C@@H](CCCCN)C(=O)N[C@@H](CCCCN)C(N)=O)[C@@H](C)O [Peptide 7] | no fluorescent positive cells | < 1 | –
2 | Affibody 10a: HER-2 affibody with perfluoroaryl staple at Cys42, Cys46 on the C-terminal helix | – | – | not compromised
